We go through four compounds from patent US20240423908A1, “Improved Nasal Administration of Parkinson's Therapeutics” (Cyrano Therapeutics, Inc., priority 2022, published 2024).

Each structure is given as a SMILES string.

Common to all, as to type: in vivo
In assay [1] the test system is Alzheimer's disease. The assay is described as follows: Treatment of Alzheimer's disease with a nasal spray composition (Example 7). The note with it: donepezil composition, nasal spray 3× daily in each naris. The text has this: A subject is admitted to a clinic for confusion and inability to concentrate. The subject is diagnosed with Alzheimer's disease. The subject is prescribed a donepezil composition in a nasal spray device described herein. The subject administers the nasal spray in an effective dose 3× daily in each naris. The nasal spray is characterized by a spray containing a D50 of about 15 μm to about 24 μm, a D90 of from about 30 μm to about 50 μm, and where less than about 3% of the droplets in the plume of a spray have a size of less than about 10 μm.

For assay [2], the system named is Parkinson's disease. The assay is described as follows: Treatment of Parkinson's disease with a nasal spray composition (Examples 4 and 6). The text has this: A subject is admitted to a clinic for tremors and rigid muscles. The subject is diagnosed with Parkinson's disease. The subject is prescribed a rolipram composition in a nasal spray device described herein. The subject administers the nasal spray in an effective dose 2× daily in each naris. The nasal spray is characterized by a spray containing a D50 of about 15 μm to about 24 μm, a D90 of from about 30 μm to about 50 μm, and where less than about 3% of the droplets in the plume of a spray have a size of less than about 10 μm.
A subject is admitted to a clinic for bradykinesia and impaired balance. The subject is diagnosed with Parkinson's disease. The subject is prescribed a levodopa composition in a nasal spray device described herein. The subject administers the nasal spray in an effective dose 4× daily in each naris. The nasal spray is characterized by a spray containing a D50 of about 15 μm to about 24 μm, a D90 of from about 30 μm to about 50 μm, and where less than about 3% of the droplets in the plume of a spray have a size of less than about 10 μm.

Assay [3] has as its system chemosensory dysfunction associated with Parkinson's disease. In words: Treatment of Parkinson's disease chemosensory dysfunction with intranasal theophylline (Example 9). As to conditions: adult human male; about 0.4 ml per day of 3.1 mg/ml theophylline liquid composition, nasal spray twice daily in each naris; after 7 days. The protocol: An adult human subject was treated for chemosensory dysfunction associated with Parkinson's disease. […] The subject was administered about 0.4 ml per day of a liquid composition comprising theophylline at a concentration of 3.1 mg/ml in a nasal spray device described herein. The subject administered the nasal spray twice daily in each naris.

The subject of assay [4] is loss of taste associated with Parkinson's disease. The assay is described as follows: Treatment of chemosensory dysfunction in a Parkinson's disease patient (Example 5). As to conditions: theophylline composition, nasal spray 2× daily in each naris. The text has this:
A subject is admitted to a clinic for loss of taste associated with Parkinson's disease. The subject is diagnosed with chemosensory dysfunction. The subject is prescribed a theophylline composition in a nasal spray device described herein. The subject administers the nasal spray in an effective dose 2× daily in each naris. The nasal spray is characterized by a spray containing a D50 of about 15 μm to about 24 μm, a D90 of from about 30 μm to about 50 μm, and where less than about 3% of the droplets in the plume of a spray have a size of less than about 10 μm.

`COc1cc2c(cc1OC)C(=O)C(CC1CCN(Cc3ccccc3)CC1)C2` (centres unmarked) [donepezil]: the confusion and concentration result in assay [1] is “reduced confusion and improved concentration”. On to `N[C@@H](Cc1ccc(O)c(O)c1)C(=O)O` [levodopa], for which the bradykinesia and balance entry in assay [2] (levodopa composition, nasal spray 4× daily in each naris) is “reduced bradykinesia and improved balance”. As to `COc1ccc(C2CNC(=O)C2)cc1OC1CCCC1` (centres unmarked) [rolipram], the “symptoms of Parkinson's disease” value in assay [2] (rolipram composition, nasal spray 2× daily in each naris) was “reduced symptoms (e.g., reduced tremors and reduced muscle rigidity)”. Regarding `Cn1c(=O)c2[nH]cnc2n(C)c1=O` [theophylline], in assay [3], the “ability to taste and smell” value was “regained their ability to taste and smell”. Besides, the sense of taste entry in assay [4] is “regains the sense of taste”.
